The source of these data is ChEMBL document CHEMBL3991601, “The target landscape of clinical kinase drugs” (Science, 2017).

As a reminder, the Kd is the concentration at which binding is half-saturated.

Calls of active or inactive are those of the source. Cut-off read from the data, not from the text of the source, for most assays here: actives have a measured Kd and inactives only a lower limit.

Experiment [1] has as its target Casein kinase I isoform gamma-1 (Homo sapiens, UniProt Q9HCP0).
Experiment [2] deals with Serine/threonine-protein kinase MRCK alpha (Homo sapiens, UniProt Q5VT25).
Chain of Serine/threonine-protein kinase MRCK alpha (Q5VT25 whole entry): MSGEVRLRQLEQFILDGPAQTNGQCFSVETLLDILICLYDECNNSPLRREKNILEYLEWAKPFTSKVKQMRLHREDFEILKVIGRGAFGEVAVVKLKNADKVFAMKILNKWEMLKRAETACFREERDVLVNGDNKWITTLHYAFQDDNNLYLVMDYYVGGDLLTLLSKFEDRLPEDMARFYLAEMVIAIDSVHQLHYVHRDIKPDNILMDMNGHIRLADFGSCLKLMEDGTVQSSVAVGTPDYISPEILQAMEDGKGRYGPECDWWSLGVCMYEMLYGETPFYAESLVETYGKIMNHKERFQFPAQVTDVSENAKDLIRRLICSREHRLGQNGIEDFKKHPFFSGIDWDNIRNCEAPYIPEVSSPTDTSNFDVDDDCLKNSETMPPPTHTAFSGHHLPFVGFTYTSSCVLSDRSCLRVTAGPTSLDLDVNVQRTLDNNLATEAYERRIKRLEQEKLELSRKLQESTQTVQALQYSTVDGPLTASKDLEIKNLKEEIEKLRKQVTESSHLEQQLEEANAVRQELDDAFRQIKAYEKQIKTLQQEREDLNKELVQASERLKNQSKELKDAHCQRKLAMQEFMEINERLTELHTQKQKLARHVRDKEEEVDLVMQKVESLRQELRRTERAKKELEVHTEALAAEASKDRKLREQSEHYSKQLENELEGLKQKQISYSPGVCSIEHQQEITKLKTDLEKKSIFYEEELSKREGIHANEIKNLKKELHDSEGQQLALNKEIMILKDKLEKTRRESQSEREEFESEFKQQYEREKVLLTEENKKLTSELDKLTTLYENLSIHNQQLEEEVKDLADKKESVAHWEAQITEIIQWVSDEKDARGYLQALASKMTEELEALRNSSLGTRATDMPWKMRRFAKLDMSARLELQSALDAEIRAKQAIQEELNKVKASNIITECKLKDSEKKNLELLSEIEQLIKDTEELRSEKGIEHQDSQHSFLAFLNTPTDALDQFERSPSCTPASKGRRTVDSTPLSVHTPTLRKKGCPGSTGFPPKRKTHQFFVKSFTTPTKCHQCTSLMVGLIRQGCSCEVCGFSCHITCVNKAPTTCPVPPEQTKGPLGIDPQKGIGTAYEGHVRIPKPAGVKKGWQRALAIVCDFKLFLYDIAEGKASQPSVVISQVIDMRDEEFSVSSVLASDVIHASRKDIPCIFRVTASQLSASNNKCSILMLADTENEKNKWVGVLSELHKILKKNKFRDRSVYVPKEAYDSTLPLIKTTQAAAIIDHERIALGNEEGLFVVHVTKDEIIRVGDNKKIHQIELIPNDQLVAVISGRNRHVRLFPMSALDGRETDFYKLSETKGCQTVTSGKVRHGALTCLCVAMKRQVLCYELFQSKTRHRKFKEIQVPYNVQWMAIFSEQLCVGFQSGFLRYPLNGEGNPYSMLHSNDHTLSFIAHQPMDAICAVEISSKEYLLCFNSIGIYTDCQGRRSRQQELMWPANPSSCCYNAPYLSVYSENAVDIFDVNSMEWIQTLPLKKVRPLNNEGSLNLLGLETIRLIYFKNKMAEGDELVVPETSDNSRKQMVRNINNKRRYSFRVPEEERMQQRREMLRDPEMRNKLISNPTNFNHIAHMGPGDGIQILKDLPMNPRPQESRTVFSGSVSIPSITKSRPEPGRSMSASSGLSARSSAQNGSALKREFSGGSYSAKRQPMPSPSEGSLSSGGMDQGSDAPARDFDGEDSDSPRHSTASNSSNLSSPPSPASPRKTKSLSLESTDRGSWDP
The target of experiment [3] is Bone morphogenetic protein receptor type-1B (Homo sapiens, UniProt O00238).
Chain of Bone morphogenetic protein receptor type-1B (O00238 whole entry): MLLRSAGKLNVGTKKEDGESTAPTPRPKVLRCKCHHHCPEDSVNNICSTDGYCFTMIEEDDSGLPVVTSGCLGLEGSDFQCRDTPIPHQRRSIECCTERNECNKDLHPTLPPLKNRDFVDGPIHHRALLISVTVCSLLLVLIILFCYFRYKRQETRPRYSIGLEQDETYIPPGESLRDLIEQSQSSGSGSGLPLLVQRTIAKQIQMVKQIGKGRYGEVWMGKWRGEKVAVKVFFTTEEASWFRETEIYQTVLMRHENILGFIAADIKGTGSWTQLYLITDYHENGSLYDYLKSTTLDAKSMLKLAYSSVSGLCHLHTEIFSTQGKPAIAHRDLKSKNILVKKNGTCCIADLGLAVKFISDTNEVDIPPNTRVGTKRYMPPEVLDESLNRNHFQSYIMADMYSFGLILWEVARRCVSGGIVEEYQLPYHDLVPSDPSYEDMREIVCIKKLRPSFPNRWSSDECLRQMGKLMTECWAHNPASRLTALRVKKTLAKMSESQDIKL
In experiment [4] the target is Cyclin-dependent kinase 3 (Homo sapiens, UniProt Q00526).
The target in experiment [5] is Cyclin-dependent kinase 7 (Homo sapiens, UniProt P50613).
Chain of Cyclin-dependent kinase 7 (P50613 whole entry, the tested form may be a part): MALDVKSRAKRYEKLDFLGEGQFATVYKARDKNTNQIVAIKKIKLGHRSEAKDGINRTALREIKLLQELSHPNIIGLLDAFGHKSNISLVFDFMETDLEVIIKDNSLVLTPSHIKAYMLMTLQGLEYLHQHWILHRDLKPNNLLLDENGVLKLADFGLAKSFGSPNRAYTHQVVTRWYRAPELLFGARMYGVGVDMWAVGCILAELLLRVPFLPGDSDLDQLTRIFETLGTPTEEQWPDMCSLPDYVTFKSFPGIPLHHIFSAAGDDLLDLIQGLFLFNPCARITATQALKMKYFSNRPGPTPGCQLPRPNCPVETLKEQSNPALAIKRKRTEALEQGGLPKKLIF
For experiment [6], the target named is Epithelial discoidin domain-containing receptor 1 (Homo sapiens, UniProt Q08345).
Chain of Epithelial discoidin domain-containing receptor 1 (Q08345 whole entry, the tested form may be a part): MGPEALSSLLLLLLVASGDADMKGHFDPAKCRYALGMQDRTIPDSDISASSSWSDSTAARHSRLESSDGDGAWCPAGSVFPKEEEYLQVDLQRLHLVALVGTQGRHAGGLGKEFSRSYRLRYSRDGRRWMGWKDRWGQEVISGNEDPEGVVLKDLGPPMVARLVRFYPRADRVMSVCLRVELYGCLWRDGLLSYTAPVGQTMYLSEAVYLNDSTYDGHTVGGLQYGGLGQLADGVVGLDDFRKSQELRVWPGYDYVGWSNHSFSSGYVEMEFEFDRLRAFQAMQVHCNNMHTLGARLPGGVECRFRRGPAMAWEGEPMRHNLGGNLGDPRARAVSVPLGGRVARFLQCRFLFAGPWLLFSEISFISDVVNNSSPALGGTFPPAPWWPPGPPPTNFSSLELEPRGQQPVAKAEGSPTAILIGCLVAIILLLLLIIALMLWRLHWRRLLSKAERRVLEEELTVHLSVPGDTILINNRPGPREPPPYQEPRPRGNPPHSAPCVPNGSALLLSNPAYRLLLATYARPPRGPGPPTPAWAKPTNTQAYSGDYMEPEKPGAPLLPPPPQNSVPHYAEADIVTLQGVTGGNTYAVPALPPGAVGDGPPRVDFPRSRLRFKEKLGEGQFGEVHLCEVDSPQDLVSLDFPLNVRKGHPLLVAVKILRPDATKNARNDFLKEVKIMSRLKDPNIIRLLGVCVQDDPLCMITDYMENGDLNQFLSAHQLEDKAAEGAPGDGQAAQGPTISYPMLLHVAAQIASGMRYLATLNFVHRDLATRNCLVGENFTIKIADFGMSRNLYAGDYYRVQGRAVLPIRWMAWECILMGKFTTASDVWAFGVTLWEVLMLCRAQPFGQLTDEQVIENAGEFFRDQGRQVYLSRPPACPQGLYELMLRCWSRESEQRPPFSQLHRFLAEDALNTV
The next experiment deals with T1, Activin receptor type-1B (Homo sapiens, UniProt P36896).
T1 sequence (P36896 whole entry): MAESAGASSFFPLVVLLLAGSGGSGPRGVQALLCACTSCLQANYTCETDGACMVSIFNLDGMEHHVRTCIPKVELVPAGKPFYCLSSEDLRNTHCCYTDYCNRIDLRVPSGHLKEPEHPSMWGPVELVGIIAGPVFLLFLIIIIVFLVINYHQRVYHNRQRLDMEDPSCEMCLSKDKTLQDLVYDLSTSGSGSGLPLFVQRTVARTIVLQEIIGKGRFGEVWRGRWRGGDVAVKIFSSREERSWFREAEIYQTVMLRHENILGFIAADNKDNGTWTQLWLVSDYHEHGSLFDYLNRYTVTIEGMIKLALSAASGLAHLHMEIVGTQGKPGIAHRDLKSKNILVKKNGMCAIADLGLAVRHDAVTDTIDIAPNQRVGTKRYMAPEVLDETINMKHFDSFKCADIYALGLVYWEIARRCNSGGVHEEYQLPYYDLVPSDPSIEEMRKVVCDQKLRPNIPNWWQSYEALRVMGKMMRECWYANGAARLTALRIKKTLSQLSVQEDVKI

The target of the next experiment is LIM domain kinase 1 (Homo sapiens, UniProt P53667).
Chain of LIM domain kinase 1 (P53667 whole entry, the tested form may be a part): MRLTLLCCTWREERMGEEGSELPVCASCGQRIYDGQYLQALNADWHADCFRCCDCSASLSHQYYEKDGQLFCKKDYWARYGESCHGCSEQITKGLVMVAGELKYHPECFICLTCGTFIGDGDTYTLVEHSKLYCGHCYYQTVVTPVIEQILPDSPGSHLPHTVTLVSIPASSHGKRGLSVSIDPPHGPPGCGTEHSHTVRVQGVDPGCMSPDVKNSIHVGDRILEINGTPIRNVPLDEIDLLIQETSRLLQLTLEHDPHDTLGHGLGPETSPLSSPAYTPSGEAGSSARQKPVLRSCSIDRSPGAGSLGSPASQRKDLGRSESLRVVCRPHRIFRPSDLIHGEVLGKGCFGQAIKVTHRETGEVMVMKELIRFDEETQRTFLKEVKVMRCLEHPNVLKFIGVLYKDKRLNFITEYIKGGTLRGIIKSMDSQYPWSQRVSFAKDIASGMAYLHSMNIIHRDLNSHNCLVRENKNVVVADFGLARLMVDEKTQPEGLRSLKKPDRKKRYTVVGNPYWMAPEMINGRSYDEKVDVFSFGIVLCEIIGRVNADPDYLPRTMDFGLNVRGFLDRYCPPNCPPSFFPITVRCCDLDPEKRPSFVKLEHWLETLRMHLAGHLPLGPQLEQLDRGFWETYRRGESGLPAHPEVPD
Experiment [7] concerns the target T2, Interleukin-1 receptor-associated kinase 3 (Homo sapiens, UniProt Q9Y616).
T2 sequence (Q9Y616 whole entry): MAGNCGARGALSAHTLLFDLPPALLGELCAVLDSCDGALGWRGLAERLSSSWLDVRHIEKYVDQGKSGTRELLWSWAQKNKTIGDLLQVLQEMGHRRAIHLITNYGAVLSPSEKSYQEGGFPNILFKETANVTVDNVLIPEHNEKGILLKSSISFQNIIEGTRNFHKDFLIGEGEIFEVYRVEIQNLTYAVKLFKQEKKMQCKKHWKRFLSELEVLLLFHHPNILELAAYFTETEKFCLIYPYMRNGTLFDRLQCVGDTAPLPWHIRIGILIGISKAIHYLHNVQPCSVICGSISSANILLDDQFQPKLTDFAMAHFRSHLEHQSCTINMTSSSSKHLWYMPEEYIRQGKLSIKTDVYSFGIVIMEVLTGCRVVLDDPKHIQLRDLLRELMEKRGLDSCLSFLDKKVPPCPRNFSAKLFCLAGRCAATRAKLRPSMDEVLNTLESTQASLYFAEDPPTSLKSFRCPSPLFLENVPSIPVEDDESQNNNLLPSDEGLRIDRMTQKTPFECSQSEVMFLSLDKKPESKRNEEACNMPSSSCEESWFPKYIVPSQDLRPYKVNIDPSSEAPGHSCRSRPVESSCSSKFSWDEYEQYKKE

Experiment [8] has as its target Serine/threonine-protein kinase SIK2 (Homo sapiens, UniProt Q9H0K1).
In experiment [9] the target is T3, Acyl-CoA dehydrogenase family member 11 (Homo sapiens, UniProt Q709F0).
T3 sequence (Q709F0 whole entry): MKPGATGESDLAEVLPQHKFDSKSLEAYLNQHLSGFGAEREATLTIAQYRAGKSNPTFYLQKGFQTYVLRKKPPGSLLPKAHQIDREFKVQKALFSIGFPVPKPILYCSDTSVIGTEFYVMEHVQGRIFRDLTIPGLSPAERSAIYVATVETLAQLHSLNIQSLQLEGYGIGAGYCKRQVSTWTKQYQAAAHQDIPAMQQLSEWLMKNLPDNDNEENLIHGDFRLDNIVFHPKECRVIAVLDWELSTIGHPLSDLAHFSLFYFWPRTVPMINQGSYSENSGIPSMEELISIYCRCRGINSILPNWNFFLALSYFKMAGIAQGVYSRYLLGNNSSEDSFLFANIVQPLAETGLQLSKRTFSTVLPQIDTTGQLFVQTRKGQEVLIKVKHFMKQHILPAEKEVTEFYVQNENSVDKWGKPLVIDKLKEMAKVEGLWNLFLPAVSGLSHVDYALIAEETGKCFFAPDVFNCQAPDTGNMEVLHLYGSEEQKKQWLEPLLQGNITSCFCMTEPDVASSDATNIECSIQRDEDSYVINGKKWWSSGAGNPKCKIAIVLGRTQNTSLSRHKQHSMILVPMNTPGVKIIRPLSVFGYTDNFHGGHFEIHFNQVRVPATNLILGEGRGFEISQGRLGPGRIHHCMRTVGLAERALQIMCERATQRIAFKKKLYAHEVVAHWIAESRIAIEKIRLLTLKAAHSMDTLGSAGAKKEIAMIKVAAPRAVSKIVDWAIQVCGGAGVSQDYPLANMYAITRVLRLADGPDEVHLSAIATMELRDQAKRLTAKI
Note: in the data inactive means no Kd found up to 30 µM.

Chain of Serine/threonine-protein kinase SIK2 (Q9H0K1 whole entry): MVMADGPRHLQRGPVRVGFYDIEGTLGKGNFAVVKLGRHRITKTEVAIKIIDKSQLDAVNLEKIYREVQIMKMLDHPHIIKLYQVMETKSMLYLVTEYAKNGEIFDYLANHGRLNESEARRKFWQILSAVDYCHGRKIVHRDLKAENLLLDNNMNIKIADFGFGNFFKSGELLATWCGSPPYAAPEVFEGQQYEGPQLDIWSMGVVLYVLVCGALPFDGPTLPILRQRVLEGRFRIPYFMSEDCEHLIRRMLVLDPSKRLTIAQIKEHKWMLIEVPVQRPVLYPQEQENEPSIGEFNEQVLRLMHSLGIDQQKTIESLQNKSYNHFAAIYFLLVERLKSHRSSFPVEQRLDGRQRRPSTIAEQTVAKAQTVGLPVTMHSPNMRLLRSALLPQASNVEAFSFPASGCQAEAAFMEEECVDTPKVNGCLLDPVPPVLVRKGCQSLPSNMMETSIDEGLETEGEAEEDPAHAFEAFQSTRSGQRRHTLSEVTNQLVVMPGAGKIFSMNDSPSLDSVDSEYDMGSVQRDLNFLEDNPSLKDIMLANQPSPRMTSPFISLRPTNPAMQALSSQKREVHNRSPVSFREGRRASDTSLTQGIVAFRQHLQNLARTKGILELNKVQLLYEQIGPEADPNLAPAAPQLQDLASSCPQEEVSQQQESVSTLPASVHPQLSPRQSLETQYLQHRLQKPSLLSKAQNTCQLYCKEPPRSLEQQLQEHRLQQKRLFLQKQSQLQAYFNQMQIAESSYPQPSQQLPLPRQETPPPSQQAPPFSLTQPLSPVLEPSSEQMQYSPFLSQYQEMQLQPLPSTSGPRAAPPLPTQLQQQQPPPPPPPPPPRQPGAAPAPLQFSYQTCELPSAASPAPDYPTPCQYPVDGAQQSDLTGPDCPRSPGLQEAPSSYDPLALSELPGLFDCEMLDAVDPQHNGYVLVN

For `O=c1[nH]c([C@@H]2CCCN2)nc2c1oc1ccc(Cl)cc12`, the Kd in [1], in experiment [2], in [3], in experiment [4], in experiment [5] and in experiment [6] was > 30 µM (inactive) each time. Further, the Kd (on Activin receptor type-1B; at LIM domain kinase 1; in experiment [7]; in experiment [8]) was > 30 µM (inactive) in each case.

As for `O=C(O)c1ccc2c(c1)nc(Nc1cccc(Cl)c1)c1ccncc12` [SILMITASERTIB], the Kd in experiment [1] was > 30 µM (inactive); in experiment [2], > 30 µM (inactive); in experiment [3], > 30 µM (inactive); in experiment [4] it was > 30 µM (inactive); in experiment [5] it was 7.12 µM (active); in experiment [6], > 30 µM (inactive). In addition, the Kd (at Activin receptor type-1B; at LIM domain kinase 1; in experiment [7]; in experiment [8]) was > 30 µM (inactive) each time.

For the molecule `CCc1nc(C(N)=O)c(Nc2ccc(N3CCC(N4CCN(C)CC4)CC3)c(OC)c2)nc1NC1CCOCC1` [GILTERITINIB], the Kd in [1], in experiment [9], in [2], in [4], in experiment [5] and in experiment [6] was > 30 µM (inactive) each time. Also, the Kd (on Activin receptor type-1B; at LIM domain kinase 1; in experiment [8]) was > 30 µM (inactive) in each case.

For `CCOc1ccn(-c2ccc(F)cc2)c(=O)c1C(=O)Nc1ccc(Oc2ccnc(N)c2Cl)c(F)c1` [BMS-777607], the Kd in [1], in experiment [9], in experiment [2], in experiment [3], in [4] and in experiment [5] was > 30 µM (inactive) in each case. The Kd in experiment [6] was 0.039 µM (active); at Activin receptor type-1B, > 30 µM (inactive); at LIM domain kinase 1 it was > 30 µM (inactive); in experiment [8] it was > 30 µM (inactive).

In the case of `CNC(=O)c1cc(COc2nnc(Nc3ccc(Cl)cc3)c3ccoc23)ccn1` [TELATINIB], the Kd (in experiment [1]; in [3]; in [4]; in experiment [5]; in experiment [6]; on Activin receptor type-1B) was > 30 µM (inactive) throughout. In addition, the Kd (on LIM domain kinase 1; in [7]; in experiment [8]) was > 30 µM (inactive) throughout.

Regarding `CNC(=O)c1cccc(-c2ccc3c(N4CCOC[C@@H]4C)nc(N4CCOC[C@@H]4C)nc3n2)c1` [VISTUSERTIB], the Kd in experiment [1], in experiment [9], in experiment [2], in experiment [3], in experiment [4] and in experiment [5] was > 30 µM (inactive) in each case. Besides, the Kd (at Activin receptor type-1B; at LIM domain kinase 1; in [7]; in experiment [8]) was > 30 µM (inactive) throughout.

As to `COc1ccc(-c2ccc3ncc4c(c3c2)n(-c2ccc(N3CCNCC3)c(C(F)(F)F)c2)c(=O)n4C)cn1` [BGT-226 FREE BASE], the Kd in [9], in [2], in experiment [3], in [4], in [5] and in experiment [6] was > 30 µM (inactive) throughout. For the same molecule, the Kd (at Activin receptor type-1B; on LIM domain kinase 1; in [7]; in experiment [8]) was > 30 µM (inactive) in each case.
